From BindingDB's records for doi:10.1016/j.ejmech.2019.111646 (Hangzhou Xixi Hospital, 2019)

Columns and labels:
[1] = Inhibition of 20S proteasome beta 1c (unknown origin) after 1 hr by fluorescence based assay
[2] = Inhibition of 20S proteasome beta 2c (unknown origin) after 1 hr by fluorescence based assay

## COc1ccc([C@@H](O)[C@H](NC(=O)[C@H](C)NC(=O)CN2CCOCC2)C(=O)N[C@@H](CC2=CCCC2)C(=O)[C@@]2(C)CO2)cc1 [Kzr-616]
[1]
  IC50: 430 nM
[2]
  IC50: 28 nM
